Patent publication US11919907B2, “Deuterated JAK inhibitor and uses thereof” (Sun Pharmaceutical Industries, Inc., priority 2020, dated 2024)
Read-outs that look alike come from different tables or passages of the source.

Experiments:
[1] = Metabolic stability using human liver microsomes; assay type: in vitro ADME; conditions: for half-life at 0.25 μM: human
Method: Materials: Human liver microsomes (20 mg/mL) were obtained from Xenotech, LLC (Lenexa, Kans.). β-nicotinamide adenine dinucleotide phosphate, reduced form (NADPH), magnesium chloride (MgCl2), and dimethyl sulfoxide (DMSO) were purchased from Sigma-Aldrich. Compound 10 and non-deuterated Compound 50 as test compounds were supplied by Concert Pharmaceuticals:
Determination of Metabolic Stability: 7.5 mM stock solutions of test compounds were prepared in DMSO. The 7.5 mM stock solutions were diluted to 12.5 μM in acetonitrile (ACN). The human liver microsomes were diluted in 0.1 M potassium phosphate buffer, pH 7.4, containing 3 mM MgCl2. The diluted microsomes were added to wells of a 96-well deep-well polypropylene plate in triplicate. A 10 μL aliquot of the 12.5 μM test compound was added to the microsomes and the mixture was pre-warmed for 10 minutes. Reactions were initiated by addition of pre-warmed NADPH solution. The final reaction volume was 0.5 mL and contained […] human liver microsomes, 0.25 μM test compound, and 2 mM NADPH in 0.1 M potassium phosphate buffer, pH 7.4, and 3 mM MgCl2. The reaction mixtures were incubated at 37° C., and 50 μL aliquots were removed at 0, 10, 20, 30, 45, and 60 minutes and added to shallow-well 96-well plates which contained 50 μL of ice-cold ACN with internal standard to stop the reactions. The plates were stored at 4° C. for 20 minutes after which 100 μL of water was added to the wells of the plate before centrifugation to pellet precipitated proteins. Supernatants were transferred to another 96-well plate and analyzed for amounts of parent remaining by LC-MS/MS using an Applied Bio-systems mass spectrometer.
Data analysis: The in vitro t1/2s for test compounds were calculated from the slopes of the linear regression of % parent remaining (ln) vs incubation time relationship. in vitro t1/2=0.693/k k=−[slope of linear regression of % parent remaining(ln) vs incubation time] Data analysis was performed using Microsoft Excel Software.

[2] = molecular target: T1, kinase domain of human recombinant JAK3 (Homo sapiens, UniProt P52333); test: JAK enzyme biochemical assay (Eurofins CEREP), JAK3; conditions: ATP at Km, 100 nM substrate peptide, 60 minutes, duplicate
T1 construct: using the kinase domains of human recombinant JAK1, JAK2, JAK3 and TYK2
Method: (§1) JAK enzyme biochemical assays were performed at Eurofins CEREP, France using the kinase domains of human recombinant JAK1, JAK2, JAK3 and TYK2. Each enzyme reaction was carried out with Compound 10 (supplied by Concert Pharmaceuticals) or control, JAK enzyme, 100 nM substrate peptide (LANCE® Ultra U-light JAK-1 peptide) and adenosine triphosphate (ATP; concentration at Km) for 60 minutes. Test compounds were dissolved in DMSO and tested in duplicate. It can be seen that Compound 10 had significant potency for inhibition of JAK enzymes.

[3] = molecular target: T2, kinase domain of human recombinant TYK2 (Homo sapiens, UniProt P29597); test: JAK enzyme biochemical assay (Eurofins CEREP), TYK2; conditions: ATP at Km, 100 nM substrate peptide, 60 minutes, duplicate
T2 construct: using the kinase domains of human recombinant JAK1, JAK2, JAK3 and TYK2
T2 sequence (P29597 897-1176 limits assumed): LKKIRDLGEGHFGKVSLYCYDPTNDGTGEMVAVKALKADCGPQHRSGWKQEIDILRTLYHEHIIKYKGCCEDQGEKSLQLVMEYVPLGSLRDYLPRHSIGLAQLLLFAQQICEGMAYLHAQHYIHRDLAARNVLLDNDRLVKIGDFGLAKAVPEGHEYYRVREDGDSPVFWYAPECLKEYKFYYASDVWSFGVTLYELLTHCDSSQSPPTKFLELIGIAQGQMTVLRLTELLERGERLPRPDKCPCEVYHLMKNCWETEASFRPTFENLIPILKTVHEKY
Method: as §1

[4] = molecular target: T3, kinase domain of human recombinant JAK2 (Homo sapiens, UniProt O60674); test: JAK enzyme biochemical assay (Eurofins CEREP), JAK2; conditions: ATP at Km, 100 nM substrate peptide, 60 minutes, duplicate
T3 construct: using the kinase domains of human recombinant JAK1, JAK2, JAK3 and TYK2
Method: as §1

[5] = molecular target: T4, kinase domain of human recombinant JAK1 (Homo sapiens, UniProt P23458); test: JAK enzyme biochemical assay (Eurofins CEREP), JAK1; conditions: ATP at Km, 100 nM substrate peptide, 60 minutes, duplicate
T4 construct: using the kinase domains of human recombinant JAK1, JAK2, JAK3 and TYK2
Method: as §1

[6] = pH 7.4, 5 mg/mL human liver microsomes, 0.25 μM test compound, 2 mM NADPH, 37° C., experiment 2498, read-out: t1/2 EXP# 2498
[7] = pH 7.4, 5 mg/mL human liver microsomes, 0.25 μM test compound, 2 mM NADPH, 37° C., experiment 2500, read-out: t1/2 EXP# 2500
[8] = pH 7.4, 5 mg/mL human liver microsomes, 0.25 μM test compound, 2 mM NADPH, 37° C., experiment 2501, read-out: t1/2 EXP# 2501
[9] = pH 7.4, human liver microsomes, average of EXP# 2498, 2500, 2501, read-out: t1/2 Average

T3 sequence (O60674 849-1124 limits assumed): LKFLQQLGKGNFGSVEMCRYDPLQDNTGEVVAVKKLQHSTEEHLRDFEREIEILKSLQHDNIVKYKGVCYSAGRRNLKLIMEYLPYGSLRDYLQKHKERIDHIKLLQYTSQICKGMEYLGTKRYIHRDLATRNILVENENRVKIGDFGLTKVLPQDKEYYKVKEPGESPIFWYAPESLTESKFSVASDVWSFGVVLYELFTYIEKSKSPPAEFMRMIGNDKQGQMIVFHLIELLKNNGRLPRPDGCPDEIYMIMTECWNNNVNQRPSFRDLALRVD
T1 sequence (P52333 822-1111 limits assumed): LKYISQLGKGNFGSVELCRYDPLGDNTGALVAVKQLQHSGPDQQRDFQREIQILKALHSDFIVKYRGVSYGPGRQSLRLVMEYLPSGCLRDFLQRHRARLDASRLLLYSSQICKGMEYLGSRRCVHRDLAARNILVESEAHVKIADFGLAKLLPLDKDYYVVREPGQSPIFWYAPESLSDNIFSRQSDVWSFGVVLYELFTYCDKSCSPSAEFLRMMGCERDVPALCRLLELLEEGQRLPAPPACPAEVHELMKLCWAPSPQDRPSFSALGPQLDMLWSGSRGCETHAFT
T4 sequence (P23458 875-1153 limits assumed): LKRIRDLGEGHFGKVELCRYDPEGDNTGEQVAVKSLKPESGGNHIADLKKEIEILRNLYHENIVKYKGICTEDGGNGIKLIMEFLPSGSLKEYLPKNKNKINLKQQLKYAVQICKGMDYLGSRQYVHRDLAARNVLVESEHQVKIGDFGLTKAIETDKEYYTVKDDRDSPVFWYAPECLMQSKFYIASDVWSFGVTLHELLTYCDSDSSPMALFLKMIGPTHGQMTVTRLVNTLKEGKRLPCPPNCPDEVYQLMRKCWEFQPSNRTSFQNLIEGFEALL

Row | Average % diff. in t1/2 (longer half-life than non-deuterated Compound 50) ([1]; Compound 10 versus Compound 50, average t1/2) [%] | half-life at 0.25 μM [1, 6] [h] | half-life at 0.25 μM [1, 7] [h] | half-life at 0.25 μM [1, 8] [h] | half-life at 0.25 μM [1, 9] [h] | IC50 [2] [nM] | IC50 [3] [nM] | IC50 [4] [nM] | IC50 [5] [nM] | SMILES
1 | 176 | 1.6 | 4.5 | 4.97 | 3.68 | 226 | 368 | 34 | 63.9 | [2H]C1([2H])C([C@@H](CC(N)=O)n2cc(-c3ncnc4[nH]ccc34)cn2)C([2H])([2H])C([2H])([2H])C1([2H])[2H] [Compound 10]
2 | – | 0.822 | 1.33 | 1.87 | 1.33 | – | – | – | – | NC(=O)C[C@H](C1CCCC1)n1cc(-c2ncnc3[nH]ccc23)cn1 [Compound 50, reference compound]
